{"source": "paper PMC8766756", "about": "“Insights on Cancer Cell Inhibition, Subcellular Activities, and Kinase Profile of Phenylacetamides Pending 1H-Imidazol-5-One Variants” (Frontiers in Pharmacology, 2022)", "assay_in_all_cases": "PamChip tyrosine kinase microarray", "assay_type_in_all_cases": "biochemical", "conditions_in_all_cases": "0.1 µM, HL60 lysate", "key": {"FRK (P42685)": {"molecular_target": "T1, FRK (P42685) (Homo sapiens, UniProt P42685)", "T1 construct": "purchased PamGene (PamChip PTK array, Upstream Kinase Analysis)", "T1 sequence (P42685 whole entry)": "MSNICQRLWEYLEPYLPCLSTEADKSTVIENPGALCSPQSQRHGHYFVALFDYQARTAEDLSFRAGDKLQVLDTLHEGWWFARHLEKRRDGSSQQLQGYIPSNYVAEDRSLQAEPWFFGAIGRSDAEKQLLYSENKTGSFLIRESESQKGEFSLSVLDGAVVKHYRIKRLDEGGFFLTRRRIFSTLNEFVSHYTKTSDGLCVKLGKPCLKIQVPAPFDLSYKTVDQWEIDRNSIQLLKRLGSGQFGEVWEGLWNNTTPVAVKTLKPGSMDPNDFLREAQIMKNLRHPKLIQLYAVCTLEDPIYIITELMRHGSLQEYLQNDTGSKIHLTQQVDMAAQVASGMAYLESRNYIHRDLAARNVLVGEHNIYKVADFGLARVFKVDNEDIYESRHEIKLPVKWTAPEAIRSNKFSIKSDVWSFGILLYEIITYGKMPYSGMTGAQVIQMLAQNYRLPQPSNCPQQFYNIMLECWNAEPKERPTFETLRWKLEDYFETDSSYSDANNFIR", "procedure": "(§1) The reproducible high potency of KIM-161 on leukemia cell lines was initially speculated to encompass Src tyrosine kinase inhibition. Even so, we also suspected that KIM-161 might be affecting other tyrosine kinases because the HL60 cells are not among the most Src-dependent highly proliferative cells ([Collins, 1987]). Therefore, a profiling of the kinase activities was performed after treatment with KIM-161 using PamChip® tyrosine kinase microarray. This analysis is based on incubation of cell lysate with 3D microarray that projects peptides specific for 143 tyrosine kinases. If a kinase is modified in the cells, it will be detected by phosphorylating its specific peptide in the microarray.\n(§2) This test measured the activities of an array of tyrosine kinases of treated HL60 cells compared to the control (untreated cells) after incubation with KIM-161 for 48 h at concentrations of 0.001, 0.01, 0.1, 1.0, 10, and 50 µM. The log fold change (LFC) heat map was initially used to identify significant peptides affected at each concentration (Figure 5).\n(§3) An Upstream Kinase Tool was used to generate a putative list of kinases responsible for phosphorylating the phosphosites on the PamChip®. It is an interpretation and is highly dependent on the contents of the underlying phosphorylation databases. Kinase score (Table 2) was used for ranking kinases based on their significance and specificity in terms of the set of peptides used for the corresponding kinase. Kinase statistics indicates the overall change of the peptide set that represents a certain kinase. Kinase statistics value of <0 indicates lower kinase activity in the lysate spiked with the compound and vice versa. Table 2 lists the 20 most changed kinases within treated HL60 cell lysates by 0.1 μM KIM-161.\n(§4) Every compound had spiked into a leukemic (AML) cell line HL60 lysate at different concentrations (0.001, 0.01, 0.1, 1, 10, and 50 μM). In addition, DMSO had also spiked at a low concentration (2% v/v) to the HL60 lysate as the control. The samples were profiled on PamGene's tyrosine kinase (PTK) arrays in technical replicates, covering a total of 196 phosphorylation sites. The frozen leukemic HL60 cultured cell pellet was sent to PamGene. At PamGene, the cells were lysed in the presence of the lysis buffer and proteases inhibitor cocktail. The protein concentration was measured using the standard Bradford assay as per the PamGene SOPs. These lysates were further used for generating the PTK activity profiles. For spiking, KIM-161 was received in powder form and dissolved in DMSO at the PamGene facility, followed by storing it at −20°C in small aliquots. PamGene used its in-house bioinformatics toolbox in combination with other methods to generate the hypotheses of signaling pathways."}, "Tyro3/Sky (Q06418)": {"molecular_target": "T2, Tyro3/Sky (Q06418) (Homo sapiens, UniProt Q06418)", "T2 construct": "purchased PamGene (PamChip PTK array, Upstream Kinase Analysis)", "T2 sequence (Q06418 41-890)": "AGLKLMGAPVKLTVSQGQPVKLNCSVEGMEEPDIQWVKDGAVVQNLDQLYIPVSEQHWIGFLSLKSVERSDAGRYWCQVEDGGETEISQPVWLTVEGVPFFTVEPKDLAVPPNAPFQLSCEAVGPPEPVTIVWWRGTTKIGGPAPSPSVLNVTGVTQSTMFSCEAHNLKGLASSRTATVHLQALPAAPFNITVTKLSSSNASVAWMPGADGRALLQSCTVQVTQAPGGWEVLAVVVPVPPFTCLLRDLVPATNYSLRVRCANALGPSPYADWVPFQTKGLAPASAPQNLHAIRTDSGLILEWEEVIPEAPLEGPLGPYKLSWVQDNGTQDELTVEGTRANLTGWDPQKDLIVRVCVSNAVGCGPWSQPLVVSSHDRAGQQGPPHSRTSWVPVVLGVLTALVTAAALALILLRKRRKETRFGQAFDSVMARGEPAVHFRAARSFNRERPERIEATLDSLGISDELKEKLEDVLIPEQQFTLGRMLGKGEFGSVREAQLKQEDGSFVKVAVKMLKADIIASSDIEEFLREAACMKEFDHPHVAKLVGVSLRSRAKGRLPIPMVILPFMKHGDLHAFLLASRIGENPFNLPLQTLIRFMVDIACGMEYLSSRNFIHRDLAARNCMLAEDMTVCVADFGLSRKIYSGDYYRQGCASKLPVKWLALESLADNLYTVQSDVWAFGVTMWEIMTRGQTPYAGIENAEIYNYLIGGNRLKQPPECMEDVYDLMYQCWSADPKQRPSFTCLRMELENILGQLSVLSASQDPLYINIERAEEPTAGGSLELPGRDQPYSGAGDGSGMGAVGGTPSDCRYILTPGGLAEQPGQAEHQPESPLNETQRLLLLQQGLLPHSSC", "procedure": "as §1, §2, §3, §4"}, "Tyk2 (P29597)": {"molecular_target": "T3, Tyk2 (P29597) (Homo sapiens, UniProt P29597)", "T3 construct": "purchased PamGene (PamChip PTK array, Upstream Kinase Analysis)", "T3 sequence (P29597 whole entry)": "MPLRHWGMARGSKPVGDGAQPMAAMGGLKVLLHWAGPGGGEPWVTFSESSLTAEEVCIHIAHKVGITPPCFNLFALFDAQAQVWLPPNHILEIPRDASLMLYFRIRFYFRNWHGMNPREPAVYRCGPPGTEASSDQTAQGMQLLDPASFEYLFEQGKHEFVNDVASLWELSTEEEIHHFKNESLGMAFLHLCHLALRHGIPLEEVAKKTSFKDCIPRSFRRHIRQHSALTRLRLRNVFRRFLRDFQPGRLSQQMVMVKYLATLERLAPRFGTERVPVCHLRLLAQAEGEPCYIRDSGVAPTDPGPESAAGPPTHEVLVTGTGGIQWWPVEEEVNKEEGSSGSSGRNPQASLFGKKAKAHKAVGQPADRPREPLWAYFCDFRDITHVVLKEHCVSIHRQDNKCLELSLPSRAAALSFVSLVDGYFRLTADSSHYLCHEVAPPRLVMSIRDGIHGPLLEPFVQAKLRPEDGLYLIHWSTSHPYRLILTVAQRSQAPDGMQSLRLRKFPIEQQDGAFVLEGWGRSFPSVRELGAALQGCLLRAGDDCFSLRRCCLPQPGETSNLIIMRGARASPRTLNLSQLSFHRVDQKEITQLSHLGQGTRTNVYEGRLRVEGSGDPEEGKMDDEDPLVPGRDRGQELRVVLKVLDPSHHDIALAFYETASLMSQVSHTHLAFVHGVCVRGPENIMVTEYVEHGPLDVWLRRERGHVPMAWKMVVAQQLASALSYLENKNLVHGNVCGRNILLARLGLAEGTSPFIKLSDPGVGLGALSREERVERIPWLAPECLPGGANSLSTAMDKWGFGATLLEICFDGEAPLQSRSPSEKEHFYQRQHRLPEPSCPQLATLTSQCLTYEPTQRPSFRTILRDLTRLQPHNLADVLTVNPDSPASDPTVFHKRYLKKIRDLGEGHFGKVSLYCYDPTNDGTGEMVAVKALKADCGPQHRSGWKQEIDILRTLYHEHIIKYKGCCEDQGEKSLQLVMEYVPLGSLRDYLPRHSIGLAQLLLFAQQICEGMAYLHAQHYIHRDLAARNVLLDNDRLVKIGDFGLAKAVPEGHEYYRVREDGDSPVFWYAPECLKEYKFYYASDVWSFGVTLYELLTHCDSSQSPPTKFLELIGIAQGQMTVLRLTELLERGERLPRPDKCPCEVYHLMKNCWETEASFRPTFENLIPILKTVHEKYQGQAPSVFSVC", "procedure": "as §1, §2, §3, §4"}, "ZAP70 (P43403)": {"molecular_target": "T4, ZAP70 (P43403) (Homo sapiens, UniProt P43403)", "T4 construct": "purchased PamGene (PamChip PTK array, Upstream Kinase Analysis)", "T4 sequence (P43403 1-619)": "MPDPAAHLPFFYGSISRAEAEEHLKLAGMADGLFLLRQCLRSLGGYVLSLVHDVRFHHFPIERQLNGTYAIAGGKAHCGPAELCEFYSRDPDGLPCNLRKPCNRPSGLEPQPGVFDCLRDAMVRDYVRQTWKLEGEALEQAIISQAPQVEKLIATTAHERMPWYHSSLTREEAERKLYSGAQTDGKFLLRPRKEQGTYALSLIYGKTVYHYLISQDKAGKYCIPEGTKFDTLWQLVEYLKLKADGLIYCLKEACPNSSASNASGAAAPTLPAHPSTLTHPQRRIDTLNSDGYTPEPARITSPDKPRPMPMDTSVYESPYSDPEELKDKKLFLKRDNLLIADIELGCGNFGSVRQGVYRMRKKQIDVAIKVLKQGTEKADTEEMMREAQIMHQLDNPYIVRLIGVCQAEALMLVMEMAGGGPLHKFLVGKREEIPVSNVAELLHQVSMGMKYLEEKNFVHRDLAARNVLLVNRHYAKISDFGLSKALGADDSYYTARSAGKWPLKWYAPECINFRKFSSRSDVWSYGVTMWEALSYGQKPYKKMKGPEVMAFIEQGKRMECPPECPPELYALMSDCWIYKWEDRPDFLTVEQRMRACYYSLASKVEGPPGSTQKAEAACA", "procedure": "as §1, §2, §3, §4"}}, "note": "Values joined by “and” are separate entries in the source; they are usually repeats but may differ in a detail not shown here. Identical values can stand only once.", "data": [{"compound": "COc1ccc(/C=C2\\N=C(C)N(c3ccc(CC(=O)NCc4ccccc4)cc3)C2=O)cc1", "note": "[Compound 4c, (Z)-N-Benzyl-2-(4-(4-(4-methoxybenzylidene)-2-methyl-5-oxo-4,5-dihydro-1H-imidazol-1-yl)phenyl)acetamide]", "values": [{"measurement": "Mean Significance Score", "setting": "FRK (P42685)", "value": 2.048}, {"measurement": "Mean Specificity Score", "setting": "FRK (P42685)", "value": 1.533}, {"measurement": "Mean Final score (Kinase score)", "setting": "FRK (P42685); listed as KIM-161", "value": "3.45 and 3.453"}, {"measurement": "Mean Significance Score", "setting": "Tyro3/Sky (Q06418)", "value": 2.048}, {"measurement": "Mean Specificity Score", "setting": "Tyro3/Sky (Q06418)", "value": 1.177}, {"measurement": "Mean Final score (Kinase score)", "setting": "Tyro3/Sky (Q06418); listed as KIM-161", "value": "3.29 and 3.287"}, {"measurement": "Mean Final score (Kinase score)", "setting": "Tyk2 (P29597)", "value": 2.4437}, {"measurement": "Mean Kinase Statistic", "setting": "Tyk2 (P29597)", "value": -1.248}, {"measurement": "Mean Significance Score", "setting": "Tyk2 (P29597)", "value": 2.048}, {"measurement": "Mean Specificity Score", "setting": "Tyk2 (P29597)", "value": 0.3814}, {"measurement": "Mean Final score (Kinase score)", "setting": "ZAP70 (P43403)", "value": 1.771}, {"measurement": "Mean Kinase Statistic", "setting": "ZAP70 (P43403)", "value": -1.015}, {"measurement": "Mean Significance Score", "setting": "ZAP70 (P43403)", "value": 1.836}, {"measurement": "Mean Specificity Score", "setting": "ZAP70 (P43403)", "value": 0.009048}]}]}
